Measurements: US10508085B2, “Compounds and methods for IDO and TDO modulation, and indications therefor” (Plexxikon Inc., priority 2016, dated 2019)

Columns and labels:
[1] = biological target: T1, Human Tryptophan 2,3-dioxygenase (TDO) (Homo sapiens, UniProt P48775); assay: Human TDO enzymatic assay (kynurenine level); format: biochemical; conditions: 1 nM TDO, 350 μM L-Trp; geometric mean; read-out: TDO GMean: IC50 (μM) (Biochemical Assay)
T1 construct: His tag (N); made in house; host or cells: E. coli
How it was run: (§1)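 N-terminally His-tagged enzymes expressed in E. coli were run in 50 mM sodium phosphate pH 6.5 with 10 mM ascorbate, catalase and Tween 20. IDO: 6 nM enzyme, 10 μM L-Trp, 5 μM methylene blue, 20 min RT. TDO: 1 nM enzyme, 350 μM L-Trp, 0.4 μM methylene blue, 70 min RT.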

[2] = biological target: T2, human IDO (IDO1-expressing HEK293 cells) (Homo sapiens, UniProt P14902); assay: Cell based kynurenine assay, IDO1-expressing HEK293 cell clones; conditions: IDO1-expressing HEK293 cells, 24 hours incubation; geometric mean; read-out: HEK293 IDO1 Kynurenine GMean IC50 (μM) (Cellular Assay)
T2 construct: expressed in transfected cells
How it was run: (§2)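 HEK293 clones stably expressing human IDO1 or human TDO (CMV promoter), 2.5×10^4 cells/well, given serial compound dilutions for 24 h. Kynurenine measured in supernatant; inhibition relative to cell/0.2% DMSO and media-only controls. IC50 by nonlinear regression.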

[3] = biological target: T3, human TDO (TDO-expressing HEK293 cells) (Homo sapiens, UniProt P48775); assay: Cell based kynurenine assay, TDO-expressing HEK293 cell clones; conditions: TDO-expressing HEK293 cells, 24 hours incubation; geometric mean; read-out: HEK293 TDO Kynurenine GMean IC50 (μM) (Cellular Assay)
T3 construct: expressed in transfected cells
How it was run: as §2

[4] = biological target: T4, Human Indoleamine 2,3-dioxygenase (IDO) (Homo sapiens, UniProt P14902); assay: Human IDO enzymatic assay (kynurenine level); format: biochemical; conditions: 6 nM IDO, 10 μM L-Trp; geometric mean; read-out: IDO1 GMean: IC50 (μM) (Biochemical Assay)
T4 construct: His tag (N); made in house; host or cells: E. coli
How it was run: as §1

T2 sequence (P14902 whole entry): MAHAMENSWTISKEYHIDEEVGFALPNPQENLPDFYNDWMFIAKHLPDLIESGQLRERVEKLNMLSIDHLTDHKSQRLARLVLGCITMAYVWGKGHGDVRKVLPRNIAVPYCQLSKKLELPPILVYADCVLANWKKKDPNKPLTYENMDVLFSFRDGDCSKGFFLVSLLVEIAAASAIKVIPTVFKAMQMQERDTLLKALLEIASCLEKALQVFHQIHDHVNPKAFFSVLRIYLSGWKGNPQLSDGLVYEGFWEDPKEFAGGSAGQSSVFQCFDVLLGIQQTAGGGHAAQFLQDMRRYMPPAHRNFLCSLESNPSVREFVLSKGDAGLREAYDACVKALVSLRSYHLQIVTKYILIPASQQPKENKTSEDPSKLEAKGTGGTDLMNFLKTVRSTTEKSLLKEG
T4 sequence (P14902 whole entry): as above
T3 sequence (P48775 whole entry): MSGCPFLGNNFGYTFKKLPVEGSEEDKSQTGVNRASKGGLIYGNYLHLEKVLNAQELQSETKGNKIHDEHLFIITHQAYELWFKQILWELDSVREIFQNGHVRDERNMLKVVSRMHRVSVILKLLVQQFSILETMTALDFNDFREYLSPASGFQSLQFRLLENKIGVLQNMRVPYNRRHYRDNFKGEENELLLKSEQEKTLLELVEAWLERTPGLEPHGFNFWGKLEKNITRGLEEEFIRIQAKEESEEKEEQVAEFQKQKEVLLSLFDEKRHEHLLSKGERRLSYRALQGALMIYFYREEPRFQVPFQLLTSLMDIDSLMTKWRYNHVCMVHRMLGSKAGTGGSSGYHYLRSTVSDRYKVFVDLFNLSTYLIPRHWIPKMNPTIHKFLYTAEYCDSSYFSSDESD
T1 sequence (P48775 whole entry): as above

Row | IC50 [1] [µM] | IC50 [2] [µM] | IC50 [3] [µM] | IC50 [4] [µM] | SMILES
1 | 10 to 100 | > 10 | > 10 | 10 to 100 | OC(CC1C2CCC1CNC2)c1cc(Cl)cc2cn[nH]c12 (stereo not drawn) [Compound P-0274, 2-(3-azabicyclo[3.2.1]octan-8-yl)-1-(5-chloro-1H-indazol-7-yl)ethan-1-ol]
2 | 0.0001 to 10 | 0.0001 to 10 | 0.0001 to 10 | 0.0001 to 10 | O=C(c1c2c(cc3cn[nH]c13)CC2)C(F)(F)C1CCOCC1 [Compound P-0275, 1-(5,6-dihydro-1H-cyclobuta[f]indazol-7-yl)-2,2-difluoro-2-(tetrahydro-2H-pyran-4-yl)ethan-1-one]
3 | 0.0001 to 10 | 0.0001 to 10 | 0.0001 to 10 | 0.0001 to 10 | CCS(=O)(=O)N1CCC(C(F)(F)C(O)c2cc(Cl)cc3cn[nH]c23)CC1 (stereo not drawn) [Compound P-0276, 1-(5-chloro-1H-indazol-7-yl)-2-(1-(ethylsulfonyl)piperidin-4-yl)-2,2-difluoroethan-1-ol]
4 | 0.0001 to 10 | 0.0001 to 10 | > 10 | 0.0001 to 10 | OC(c1c2c(cc3cn[nH]c13)CC2)C1(C2CCOCC2)CC1 (stereo not drawn) [Compound P-0277, (5,6-dihydro-1H-cyclobuta[f]indazol-7-yl)(1-(tetrahydro-2H-pyran-4-yl)cyclopropyl)methanol]
5 | 0.0001 to 10 | 0.0001 to 10 | > 10 | 0.0001 to 10 | OC(c1c2c(cc3cn[nH]c13)CC2)C(F)(F)C1CCOCC1 (stereo not drawn) [Compound P-0278, 1-(5,6-dihydro-1H-cyclobuta[f]indazol-7-yl)-2,2-difluoro-2-(tetrahydro-2H-pyran-4-yl)ethan-1-ol]
6 | 0.0001 to 10 | 0.0001 to 10 | > 10 | 0.0001 to 10 | OC(c1c2c(cc3cn[nH]c13)CC2)C12CCC(CC1)CC2 (stereo not drawn) [Compound P-0279, bicyclo[2.2.2]octan-1-yl(5,6-dihydro-1H-cyclobuta[f]indazol-7-yl)methanol]
7 | 0.0001 to 10 | 0.0001 to 10 | > 10 | 0.0001 to 10 | CC(C)(C1CCN(S(C)(=O)=O)CC1)C(O)c1c2c(cc3cn[nH]c13)CC2 (stereo not drawn) [Compound P-0280, 1-(5,6-dihydro-1H-cyclobuta[f]indazol-7-yl)-2-methyl-2-(1-(methylsulfonyl)piperidin-4-yl)propan-1-ol]
8 | 0.0001 to 10 | 0.0001 to 10 | 0.0001 to 10 | 0.0001 to 10 | CC(=O)N1CC2CCC(C1)C2CC(O)c1cc(Cl)cc2cn[nH]c12 (stereo not drawn) [Compound P-0281, 1-(8-(2-(5-chloro-1H-indazol-7-yl)-2-hydroxyethyl)-3-azabicyclo[3.2.1]octan-3-yl)ethan-1-one]
9 | 0.0001 to 10 | 0.0001 to 10 | 0.0001 to 10 | 0.0001 to 10 | CS(=O)(=O)N1CC2CCC(C1)C2CC(O)c1cc(Cl)cc2cn[nH]c12 (stereo not drawn) [Compound P-0282, 1-(5-chloro-1H-indazol-7-yl)-2-(3-(methylsulfonyl)-3-azabicyclo[3.2.1]octan-8-yl)ethan-1-ol]
10 | 0.0001 to 10 | > 10 | 0.0001 to 10 | 0.0001 to 10 | CS(=O)(=O)N1CCC(C(O)c2cc(Cl)cc3cn[nH]c23)CC1 (stereo not drawn) [Compound P-0283, (5-chloro-1H-indazol-7-yl)(1-(methylsulfonyl)piperidin-4-yl)methanol]
11 | 0.0001 to 10 | 0.0001 to 10 | 0.0001 to 10 | 0.0001 to 10 | CC(C)(C1CCN(S(C)(=O)=O)CC1)C(O)c1c(F)ccc2cn[nH]c12 (stereo not drawn) [Compound P-0284, 1-(6-fluoro-1H-indazol-7-yl)-2-methyl-2-(1-(methylsulfonyl)piperidin-4-yl)propan-1-ol]
12 | 0.0001 to 10 | 0.0001 to 10 | 0.0001 to 10 | 0.0001 to 10 | CC(C)(C(O)c1c(F)c(Cl)cc2cn[nH]c12)[C@H]1C[C@H]2CC[C@@H](C1)N2S(C)(=O)=O (stereo partly drawn) [Compound P-0285, 1-(5-chloro-6-fluoro-1H-indazol-7-yl)-2-methyl-2-((1R,3r,5S)-8-(methylsulfonyl)-8-azabicyclo[3.2.1]octan-3-yl)propan-1-ol]
13 | 0.0001 to 10 | 0.0001 to 10 | 0.0001 to 10 | 0.0001 to 10 | CC1(C(O)c2cc(Cl)cc3cn[nH]c23)CCN(S(C)(=O)=O)CC1 (stereo not drawn) [Compound P-0286, (5-chloro-1H-indazol-7-yl)(4-methyl-1-(methylsulfonyl)piperidin-4-yl)methanol]
14 | 0.0001 to 10 | 0.0001 to 10 | > 10 | 0.0001 to 10 | CC1(C(O)c2c(Cl)c(Cl)cc3cn[nH]c23)CCCCC1 (stereo not drawn) [Compound P-0287, (5,6-dichloro-1H-indazol-7-yl)(1-methylcyclohexyl)methanol]
15 | 0.0001 to 10 | 0.0001 to 10 | 0.0001 to 10 | 0.0001 to 10 | CS(=O)(=O)N1CCC(C(F)(F)C(O)c2c(F)c(Cl)cc3cn[nH]c23)CC1 (stereo not drawn) [Compound P-0288, 1-(5-chloro-6-fluoro-1H-indazol-7-yl)-2,2-difluoro-2-(1-(methylsulfonyl)piperidin-4-yl)ethan-1-ol]
16 | 0.0001 to 10 | 0.0001 to 10 | 0.0001 to 10 | 0.0001 to 10 | OC(c1cc(Cl)cc2cn[nH]c12)C(F)(F)C1(O)CCC1 (stereo not drawn) [Compound P-0289, 1-(2-(5-chloro-1H-indazol-7-yl)-1,1-difluoro-2-hydroxyethyl)cyclobutan-1-ol]
17 | 0.0001 to 10 | 0.0001 to 10 | 0.0001 to 10 | 0.0001 to 10 | OC(c1c(F)c(Cl)cc2cn[nH]c12)C(F)(F)C1(O)CCC1 (stereo not drawn) [Compound P-0290, 1-(2-(5-chloro-6-fluoro-1H-indazol-7-yl)-1,1-difluoro-2-hydroxyethyl)cyclobutan-1-ol]
18 | 0.0001 to 10 | 0.0001 to 10 | 0.0001 to 10 | 0.0001 to 10 | CC(C)S(=O)(=O)N1CC2CCC(C1)C2CC(O)c1cc(Cl)cc2cn[nH]c12 (stereo not drawn) [Compound P-0291, 1-(5-chloro-1H-indazol-7-yl)-2-(3-(isopropylsulfonyl)-3-azabicyclo[3.2.1]octan-8-yl)ethan-1-ol]
19 | 0.0001 to 10 | 0.0001 to 10 | 0.0001 to 10 | 0.0001 to 10 | CC1(C)CN(c2c3c(cc4cn[nH]c24)CC3)CCN1S(C)(=O)=O [Compound P-0292, 7-(3,3-dimethyl-4-(methylsulfonyl)piperazin-1-yl)-5,6-dihydro-1H-cyclobuta[f]indazole]
20 | 0.0001 to 10 | 0.0001 to 10 | 0.0001 to 10 | 0.0001 to 10 | OC(c1c2c(cc3cn[nH]c13)CC2)C1CC2CCC1C2 (stereo not drawn) [Compound P-0293, bicyclo[2.2.1]heptan-2-yl(5,6-dihydro-1H-cyclobuta[f]indazol-7-yl)methanol]
21 | 0.0001 to 10 | 0.0001 to 10 | 0.0001 to 10 | 0.0001 to 10 | CC(=O)N1CCC(C(F)(F)C(O)c2cc(Cl)cc3cn[nH]c23)CC1 (stereo not drawn) [Compound P-0295, 1-(4-(2-(5-chloro-1H-indazol-7-yl)-1,1-difluoro-2-hydroxyethyl)piperidin-1-yl)ethan-1-one]
22 | 0.0001 to 10 | 0.0001 to 10 | > 10 | 0.0001 to 10 | CS(=O)(=O)N1CCC(C(F)(F)C(O)c2c3c(cc4cn[nH]c24)CC3)CC1 (stereo not drawn) [Compound P-0296, 1-(5,6-dihydro-1H-cyclobuta[f]indazol-7-yl)-2,2-difluoro-2-(1-(methylsulfonyl)piperidin-4-yl)ethan-1-ol]
23 | 0.0001 to 10 | 0.0001 to 10 | 0.0001 to 10 | 0.0001 to 10 | CC(C)(C1CCS(=O)(=O)CC1)C(O)c1cc(Cl)cc2cn[nH]c12 (stereo not drawn) [Compound P-0297, 4-(1-(5-chloro-1H-indazol-7-yl)-1-hydroxy-2-methylpropan-2-yl)tetrahydro-2H-thiopyran 1,1-dioxide]
24 | 0.0001 to 10 | 0.0001 to 10 | 0.0001 to 10 | 0.0001 to 10 | CC(C)(C1CCS(=O)(=O)CC1)C(O)c1c(F)c(Cl)cc2cn[nH]c12 (stereo not drawn) [Compound P-0298, 4-(1-(5-chloro-6-fluoro-1H-indazol-7-yl)-1-hydroxy-2-methylpropan-2-yl)tetrahydro-2H-thiopyran 1,1-dioxide]
25 | 0.0001 to 10 | 0.0001 to 10 | 0.0001 to 10 | 0.0001 to 10 | OC(c1c(F)c(Cl)cc2cn[nH]c12)C12CCC(F)(CC1)CC2 (stereo not drawn) [Compound P-0299, (5-chloro-6-fluoro-1H-indazol-7-yl)(4-fluorobicyclo[2.2.2]octan-1-yl)methanol]
26 | 0.0001 to 10 | 0.0001 to 10 | 0.0001 to 10 | 0.0001 to 10 | CC(=O)N1C2CCC1CC(C(C)(C)C(O)c1c(F)c(Cl)cc3cn[nH]c13)C2 (stereo not drawn) [Compound P-0300]
27 | 0.0001 to 10 | 0.0001 to 10 | 0.0001 to 10 | 0.0001 to 10 | OC(c1c(F)c(Cl)cc2cn[nH]c12)C12CCC(C(F)(F)F)(CC1)CC2 (stereo not drawn) [Compound P-0301, (5-chloro-6-fluoro-1H-indazol-7-yl)(4-(trifluoromethyl)bicyclo[2.2.2]octan-1-yl)methanol]
